Measured values: ChEMBL document CHEMBL1909597, “Biological evaluation of glycosyl-isoindigo derivatives against the pathogenic agents of tropical diseases (malaria, Chagas disease, leishmaniasis and human African trypanosomiasis)” (Bioorg Med Chem Lett, 2011)

What was measured:
[1] = tested on: Trypanosoma brucei rhodesiense; assay: Antiparasitic activity against bloodstream form of Trypanosoma brucei rhodesiense STIB 900 […] after 72 hrs by Alamar blue assay; assay type: functional, organism-based; conditions: STIB 900, 72 h
[2] = Selectivity index, ratio of IC50 for rat L6 cells to IC50 for bloodstream form of Trypanosoma brucei rhodesiense STIB 900; assay type: toxicity, cell-based; conditions: read-out: Ratio IC50
[3] = tested on: Trypanosoma cruzi; assay: Antiparasitic activity against trypomastigotes of Trypanosoma cruzi Tulahuen C2C4 expressing LacZ gene infected in rat L6 cells after 96 hrs; assay type: functional, organism-based; conditions: Tulahuen C2C4, L6, 96 h
[4] = tested on: Leishmania donovani; assay: Antiparasitic activity against amastigotes of Leishmania donovani MHOM/ET/67/L82 […] after 72 hrs by Alamar blue assay; assay type: functional, organism-based; conditions: MHOM/ET/67/L82, 72 h
[5] = tested on: Plasmodium falciparum; assay: Antiparasitic activity against Plasmodium falciparum K1 […] assessed as inhibition of parasite growth preincubated for 48 hrs before [3H]hypoxanthine addition measured after 24 hrs by [3H]hypoxanthine incorporation assay; assay type: functional, organism-based
[6] = tested on: L6; assay: Cytotoxicity against rat L6 cells after 72 hrs by Alamar blue assay; assay type: cell-based; conditions: L6, 72 h
[7] = Selectivity index, ratio of IC50 for rat L6 cells to IC50 for Leishmania donovani MHOM/ET/67/L82 amastigotes; assay type: toxicity, cell-based; conditions: read-out: Ratio IC50
[8] = Selectivity index, ratio of IC50 for rat L6 cells to IC50 for Plasmodium falciparum K1; assay type: toxicity, cell-based; conditions: read-out: Ratio IC50
[9] = Selectivity index, ratio of IC50 for rat L6 cells to IC50 for Trypanosoma cruzi Tulahuen C2C4 trypomastigotes; assay type: toxicity, cell-based; conditions: read-out: Ratio IC50

IC50 [1] [µM]	IC50 [3] [µM]	SMILES	selectivity ratio [2]	IC50 [4] [µM]	IC50 [5] [µM]	IC50 [6] [µM]	selectivity ratio [7]	selectivity ratio [8]	selectivity ratio [9]
0.51	> 120	CCCC(=O)c1ccc2c(c1)/C(=C1\C(=O)N([C@@H]3O[C@H](COC(C)=O)[C@@H](OC(C)=O)[C@H](OC(C)=O)[C@H]3OC(C)=O)c3ccc(Br)cc31)C(=O)N2	194	3.6	2.48	99	27.5	39.9	
		CCCCCCCCCCCCCCCCOP(=O)([O-])OCC[N+](C)(C)C [MILTEFOSINE]		0.37			265		
	2.55	O=C(Cn1ccnc1[N+](=O)[O-])NCc1ccccc1 [BENZNIDAZOLE]							> 135
0.88	19.3	CC(=O)OC[C@H]1O[C@@H](N2C(=O)/C(=C3/C(=O)Nc4ncccc43)c3cc(Br)ccc32)[C@H](OC(C)=O)[C@@H](OC(C)=O)[C@@H]1OC(C)=O		0.84	> 7	10			
		CCN(CC)CCCC(C)Nc1ccnc2cc(Cl)ccc12 (stereo unspecified) [CHLOROQUINE]						327	
0.6	> 130	CC(=O)OC[C@H]1O[C@@H](N2C(=O)/C(=C3/C(=O)Nc4ccc(OC(F)(F)F)cc43)c3ccccc32)[C@H](OC(C)=O)[C@@H](OC(C)=O)[C@@H]1OC(C)=O	206	11.1	> 7	124			
1.24	11.2	CC(=O)OC[C@H]1O[C@@H](N2C(=O)/C(=C3/C(=O)Nc4ccccc43)c3ccccc32)[C@H](OC(C)=O)[C@@H](OC(C)=O)[C@@H]1OC(C)=O		1.93	> 8	4.53			

SMILES	IC50 [1] [µM]	IC50 [3] [µM]	selectivity ratio [2]	IC50 [4] [µM]	IC50 [5] [µM]	IC50 [6] [µM]	selectivity ratio [7]	selectivity ratio [8]	selectivity ratio [9]
Nc1nc(N)nc(Nc2ccc([As]3SCC(CO)S3)cc2)n1 (stereo unspecified) [MELARSOPROL]	0.013		193						
